{
  "source": "patent US20040067850A1",
  "about": "“Agricultural and horticultural composition” (priority 2001, published 2004)",
  "system": "Oat",
  "assay": "Gotland field trial, foliage application: manganese deficiency assessment in oat",
  "format": "in vivo",
  "conditions": "4 kg/ha, scale 0 = no deficiency, 100 = all plants",
  "protocol": "Oat was grown on a location on Gotland, Sweden, with severe manganese conditions. […] The invention, MicroplanTM Manganese (150 gram manganese complex bound per liter, amino acids used were methionin and lysine, respectively), was applied to the foliage at growing stage DC 25 (early tillering). […] The same amount of manganese was applied. The assessment, shown in the table 7 below, were done one week and two weeks after application. According to the following procedure: Manganese deficiency 0-100, scale 0=no deficiency 100=all plants/leaves showing deficiency (=yellow leaves).",
  "data": [
    {"molecule": "O=S(=O)([O-])[O-].[Mn+2]", "note": "[Manganese sulphate]", "values": [
      {"measurement": "Manganese deficiency 0-100 (plant/leaf area with symptoms)", "setting": "6/7-2001", "result": 28},
      {"measurement": "Manganese deficiency 0-100 (plant/leaf area with symptoms)", "setting": "16/7-2001", "result": 25}
    ]}
  ]
}
